Experimental data as given in the NIST ThermoML archive (doi:10.1021/je700205n).

Conditions: Liquid

CCCCCCCCn1cc[n+](C)c1.O=S(=O)([N-]S(=O)(=O)C(F)(F)F)C(F)(F)F
mass density [kg/m3]
Conditions	293.15 K	303.15 K	313.15 K	323.15 K	333.15 K	343.15 K	353.15 K	393.15 K
100 kPa	1328	1315	1305	1296	1286	1278	1269	1236
1000 kPa	1328	1316	1306	1296	1287	1278	1270	1237
2000 kPa	1329	1317	1307	1297	1288	1279	1270	1238
3000 kPa	1330	1317	1307	1298	1289	1280	1271	1239
4000 kPa	1330	1318	1308	1299	1289	1281	1272	1240
5000 kPa	1331	1319	1309	1299	1290	1282	1273	1241
7500 kPa	1333	1321	1311	1301	1292	1284	1275	1243
10000 kPa	1334	1322	1312	1303	1294	1286	1277	1246
15000 kPa	1338	1326	1316	1307	1298	1290	1282	1251
20000 kPa	1341	1329	1320	1311	1302	1294	1286	1256
25000 kPa	1345	1333	1324	1315	1306	1298	1290	1261
30000 kPa	1348	1337	1327	1319	1310	1303	1294	1266
